Read-outs that look alike come from different tables or passages of the source.
Assays:
[1] = tested on: E. coli J5; type: cell-based; details: Table 40
[2] = tested on: mouse monoclonal anti-fluorescein antibody (#4-4-20); type: binding
From the text: Millipolarization data was hand calculated using the above equations as described for the fully automated instrument. Total intensity is not represented in the following tables. Table 48 illustrates the reactivity of PMB-Cys-Fl when reacted with mouse monoclonal anti-fluorescein antibody (#4-4-20) obtained from Edward M. Voss at the University of Illinois Urbana.

[3] = tested on: E. coli 0111:B4 bacteria; type: binding; details: in °C (unit assumed)
[4] = tested on: E. coli 0111: B4; type: binding; details: bacteria coated at 5.0 ug/ml, washed; no antibody
Experimental: (§1) Staph. aureus and E. coli 0111: B4 were cultured in TSB media at 37 degrees C with shaking. Cells were collected by centrifugation and suspended in 50 mM sodium phosphate buffer, pH 6.8. The cells were again collected by centrifugation and suspended in […] sodium phosphate buffer containing 0.025% sodium azide (buffer).
(§2) The bacteria were diluted with buffer to an absorbance of 1.0 at 620 nm. PMB-Cys-Mal-FL was added to 2.5 ml of each diluted bacterial suspension, to a final concentration of 5.0 ug/ml. The suspensions were incubated at ambient temperature for 5 minutes. The bacteria were collected by centrifugation and suspended in buffer, repeated for a total of three times. The bacteria were then suspended in buffer and Tween 20 detergent was added to a final concentration of 0.1%. The bacteria were again collected by centrifugation and suspended in 1.5 ml buffer without Tween 20.
(§3) The bacteria were diluted 10 fold with buffer and fluorescence was measured in a Sequoia-Turner model 450 Fluorometer using NB490 and SC515 filters with the gain at 5. Mouse monoclonal anti-fluorescein antibody 4-4-20 was added with mixing to the bacterial suspensions. Table 50 summarizes the experimental results.

[5] = tested on: Staph. aureus; type: binding; details: bacteria coated at 5.0 ug/ml, washed
Experimental: as §1, §2, §3

[6] = tested on: E. coli 0111:B4; type: cell-based; design: key: −: no agglutination; +: microagglutination; +++: macroagglutination; details: avidin beads loaded with compound
Experimental: (§4) 100 ul polystyrene beads (Spherotech […], 5% w/v) were aliquoted to two 1.5 mL microcentrifuge tubes, centrifuged 1 min at 12,000 g in microcentrifuge and washed 2×with 1 ml PBS (vortexed and recentrifuged 1-2 min after each wash). The beads were resuspended in 900 ul PBS, and 100 ul of 1 mg/ml solution of avidin (Sigma) added, and the tubes rotated overnight at room temperature. The beads were pelleted, and washed sequentially as described above with 1 ml PBS, PBS+0.5% tween 20 (PBST), and PBS, and each sample resuspended in 200 ul PBS. The samples were pooled and stored at 4 degrees.
(§5) 20 ul avidin coated beads were aliquoted into 2×1.5 ml microcentrifuge tubes, and non-specifically binding sites blocked by rotating with 1 ml PBS+1% BSA for 1 hr at room temperature. […] The samples were pelleted, and washed with 1 ml PBS, repelleted and resuspended with 20 ul PBS. III Bacterial Agglutination Assays
(§6) 5 ul of each resin was added to 20 ul bacteria (1/10 dilution of a saturated overnight culture) in independant depression wells (2 wells/bacteria tested). The samples were incubated 30 min at 37 degrees, swirled, and agglutination scored. (Note that −=no agglutination, +=microagglutination and +++=macroagglutination)

[7] = tested on: E. coli HB101; type: cell-based; design: key: −: no agglutination; +: microagglutination; +++: macroagglutination; details: avidin beads loaded with compound
Experimental: as §4, §5, §6

[8] = tested on: Salmonella 34576; type: cell-based; design: key: −: no agglutination; +: microagglutination; +++: macroagglutination; details: avidin beads loaded with compound
Experimental: as §4, §5, §6

[9] = tested on: E. coli J5; type: cell-based; design: key: −: no agglutination; +: microagglutination; +++: macroagglutination; details: for Agglutination by avidin beads: Table 53
Experimental: as §4, §5, §6
To determine if free Immunoadaptor™ compounds can also stably bind surface exposed bacterial structures, agglutination assays were performed using bacteria prebound to Immunoadaptor™ compounds. The assay was performed with J5 bacteria, since the agglutination signal (see table above) was the strongest with this strain. 40 ul avidin coated resin was blocked for 1 hr at room temperature with 1 ml PBS+1% BSA, pelleted as described above, and resuspended in 40 ul PBS. […] The following assays were performed:
Incubated 1 hr at 37 degrees in depression well, swirled and agglutination scored.
Incubated 10 min at 37 degrees then added 5 ul avidin coated beads. Incubated 1 hr at 37 degrees in depression well, swirled and agglutination scored.
Incubated 15 min at 37 degrees, pelleted cells by centrifugation, washed with 100 ul PBS (resuspended cells with micropipetter) and repelleted. Cells were resuspended in 80 ul PBS, 20 ul aliquots distributed to depression well, 5 ul avidin coated beads added, and, incubated 1 hr at 37 degrees, swirled and agglutination scored.

[10] = tested on: H16 bacterial strain; type: binding; details: 1 ug/ml, Extravidin and anti-avidin chase
[11] = tested on: J5 bacteria phagocytosed by J774A.1 mouse macrophage cell line; type: cell-based
[12] = tested on: E. coli 0111:B4
[13] = target: avidin and chicken anti-PMB antibody (Gallus gallus, UniProt P02701)
avidin and chicken anti-PMB antibody, sequence (P02701 25-152): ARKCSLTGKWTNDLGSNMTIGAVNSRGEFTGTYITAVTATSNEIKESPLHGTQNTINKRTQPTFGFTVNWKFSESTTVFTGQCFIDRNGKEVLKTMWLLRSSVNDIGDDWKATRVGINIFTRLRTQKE
Experimental: The capture ELISA was performed as described below. […] The coating suspensions were decanted, and all wells were washed three times using PBS+0.5% Tween 20 (PBST). In order to block non-specific binding sites, 100 ul of 1% BSA (Sigma, St. Louis, Mo.) in PBS (blocking solution) was then added to each well, and the plates were incubated for 1 hr. at 37° C.
The blocking solution was decanted, and duplicate samples of 150 ul of either PMB-Cy-Biotin or PMB-Cy-Fl added to the first well of a dilution series. The initial testing concentration of the premixed conjugate was 10 ng/ml in blocking buffer (see above), followed by 5 fold dilutions in blocking buffer. This was accomplished by serially transferring 30 ul aliquots to 120 ul buffer, mixing, and repeating the dilution into a fresh well. After the final dilution, 30 ul was removed from the well such that all wells contained 120 ul final volume. A total of 2 such dilutions were performed. […] Following this incubation, the serially diluted samples were decanted, and the wells were washed six times using PBST (Phosphate-Buffered Saline with Tween). To each well, 100 ul of 1/1000 diluted chicken anti-PMB antibody or chicken preimmune, diluted in blocking buffer was added, and the plate incubated 1 hr at 37° C. The antibody solutions were decanted and the plates were washed as described above. To each well, 100 ul of 1/1000 diluted rabbit anti-chicken IgG alkaline phosphatase (Sigma) diluted in blocking buffer was added, and the plate incubated 1 hr at 37° C. The antibody solutions were decanted and the plates were washed as described above, substituting 50 nM Na2CO3, pH 9.5 for the PBST in the final wash. The plates were developed by the addition of 100 ul of a solution containing 1 mg/ml para-nitro phenyl phosphate (Sigma, St. Louis, Mo.) dissolved in 50 nM Na2CO3, 10 mM MgCl2, pH 9.5 to each well, and incubating the plates at room temperature in the dark overnight. […] Only the ELISA readings from the maximally diluted samples in each dilution series are shown.

## polymyxin B—cystiene—Maleimamide—fluorescein [PMB-Cys-Mal-FL]
[1]
  MIC: 0.8 µg/mL
[2]; PMB-Cys-Mal-FL 10^−7 M alone
  mP: 32.5
[2]; antibody 5 × 10^-8 M & PMB-Cys-Mal-FL 10^-7 M
  mP: 390.3
[2]; not represented in Table 48
  quenching of the intensity signal by anti-fluorescein antibody: 95%
[3]; E. coli (2.7 × 10^8 bacteria) & PMB-Cys-Mal-Fl
  mP: 256.8
[3]; PMB-Cys-Mal-Fl (10^−8 M) alone
  mP: 57.3
[4]
  FLUORESCENCE of coated bacteria: 40 AFU
[5]
  FLUORESCENCE of coated bacteria: 5 AFU
[6]
  Agglutination: −
[7]
  Agglutination: −
[8]
  Agglutination: −
[9]; Chase format
  Agglutination by avidin beads: −
[9]; Premix format
  Agglutination by avidin beads: −
[9]; Wash + Chase format
  Agglutination by avidin beads: −
[9]; avidin beads loaded with compound
  Agglutination: −
[10]; 2 × 10^5 bacteria
  ELISA titer: 0.005
[10]; 2 × 10^6 bacteria
  ELISA titer: 0.162
[11]; Table 59, 0.5 ug/ml then 10 ug/ml anti-fluorescein antibody (chase)
  % Macrophage with phagocytosed bacteria: 40%
[11]; Table 59, 0.5 ug/ml with 10 ug/ml anti-fluorescein antibody (premix)
  % Macrophage with phagocytosed bacteria: 29%
[11]; Table 59, opsonin alone
  % Macrophage with phagocytosed bacteria: 15%
  Recovered bacterial colonies: 29
[11]; Table 59, then anti-fluorescein antibody (chase)
  Recovered bacterial colonies: 76
[11]; Table 59, with anti-fluorescein antibody (premix)
  Recovered bacterial colonies: 52
[11]; Table 60, 1×10^8 J5 bacteria opsonized, from 100 macrophage examined, conjugates 0.5 ug/ml, anti-avidin 1/500, anti-fluorescein antibody 25 ug/ml
  % Macrophage with phagocytosed bacteria: 5%
[11]; Table 61 (repeat assay), 1×10^8 J5 bacteria opsonized, from 100 macrophage examined, conjugates 0.5 ug/ml, anti-avidin 1/400, anti-fluorescein antibody 14 ug/ml
  % Macrophage with phagocytosed bacteria: 8%
[11]; with anti-fluorescein antibody
  enhancement of phagocytosis (in words): Clear elevation of phagocytosis
[12]; Table 40, first number of the cell
  MIC: 0.9 µg/mL
[12]; Table 44
  MIC: 1 µg/mL
[13]; Anti-PMB test antibody, Avidin coated wells, maximally diluted sample
  ELISA absorbency at 410 nm: 0.033
[13]; Anti-PMB, PBS coated wells
  ELISA absorbency at 410 nm: 0.016
[13]; Preimmune, Avidin coated wells
  ELISA absorbency at 410 nm: 0.010
[13]; Preimmune, PBS coated wells
  ELISA absorbency at 410 nm: 0.020

Source: patent publication US6579696B1, “Polymyxin B conjugates” (priority 1992, dated 2003)
